# Measured values: patent US11873298B2, “Compounds and uses thereof” (JANSSEN PHARMACEUTICA NV, priority 2017, dated 2024)
# What was measured:
# SCD1 = target: T1, SCD1 (Homo sapiens, UniProt O00767); assay: Growth inhibition of humanized yeast strain expressing SCD1 as sole desaturase; type: cell-based
# T1 construct: host or cells: S. cerevisiae ole1Δ strain (W303 pdr1Δ pdr3Δ background), plasmid pRS316 with TDH3 promoter and CYC1 terminator
# T1 sequence (O00767 1-359): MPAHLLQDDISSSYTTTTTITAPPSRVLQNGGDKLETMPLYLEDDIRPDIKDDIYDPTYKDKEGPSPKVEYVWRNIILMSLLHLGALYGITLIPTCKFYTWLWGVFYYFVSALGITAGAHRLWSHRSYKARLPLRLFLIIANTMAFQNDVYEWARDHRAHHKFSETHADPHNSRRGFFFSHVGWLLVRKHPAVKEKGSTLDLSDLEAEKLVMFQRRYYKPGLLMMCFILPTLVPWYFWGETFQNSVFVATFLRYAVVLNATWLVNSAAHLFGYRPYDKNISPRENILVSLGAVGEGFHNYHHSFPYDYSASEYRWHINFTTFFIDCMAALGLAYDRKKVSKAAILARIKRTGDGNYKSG
# Summary of the method: (§1)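 Measured by optical density at 600 nm, growth of desaturase-dependent yeast (OLE1 deleted; human SCD1, human SCD5 or yeast Ole1 supplied from plasmid) was scored after 24 h (Ole1) or 40 h (SCD1, SCD5) at 30° C. in galactose media lacking uracil with DMSO-delivered compound.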
# SCD5 = target: T2, SCD5 (Homo sapiens, UniProt Q86SK9); assay: Growth inhibition of humanized yeast strain expressing SCD5 as sole desaturase; type: cell-based
# T2 construct: host or cells: S. cerevisiae ole1Δ strain (W303 pdr1Δ pdr3Δ background), plasmid pRS316 with TDH3 promoter and CYC1 terminator
# T2 sequence (Q86SK9 1-330): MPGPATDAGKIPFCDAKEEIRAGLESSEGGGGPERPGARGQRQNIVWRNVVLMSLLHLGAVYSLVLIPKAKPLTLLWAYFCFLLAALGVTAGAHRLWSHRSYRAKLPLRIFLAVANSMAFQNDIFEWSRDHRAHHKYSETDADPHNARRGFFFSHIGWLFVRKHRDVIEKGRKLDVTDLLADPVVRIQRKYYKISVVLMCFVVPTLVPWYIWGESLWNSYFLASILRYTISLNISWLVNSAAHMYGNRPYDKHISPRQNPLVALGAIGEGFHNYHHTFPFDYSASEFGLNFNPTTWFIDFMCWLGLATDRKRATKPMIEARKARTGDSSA
# Summary of the method: as §1
# [1] = growth inhibition of humanized yeast strain expressing human SCD1
# [2] = growth inhibition of humanized yeast strain expressing human SCD5
Structure (SMILES),"IC50 (SCD1; humanized yeast strain, 40 h) [µM]","IC50 (SCD5; humanized yeast strain, 40 h) [µM]",further results
C=C(F)/C=C/n1ncc2ccc(-c3noc(C4CCN(C(=O)OC(C)(C)C)CC4)n3)cc21 [Compound 738],,,IC50 (SCD1; [1]): > 45 µM; IC50 (SCD5; [2]): > 45 µM
CC(C)n1ncc2ccc(-c3noc(C4CCN(C(=O)N5CCCC5(C)CO)CC4)n3)cc21 (stereo not shown) [Compound 687],,,IC50 (SCD1; [1]): > 45 µM; IC50 (SCD5; [2]): > 45 µM
CN1CC2CN(c3nc(-c4ccc5cn(C6COC6)nc5c4)no3)CCN2C1=O (stereo not shown) [Compound 1143],> 45,> 45,
COC(=O)N1CCC(c2nc(-c3ccc4cnn([C@H]5CCOC5)c4c3)no2)CC1 [Compound 906],> 45,0.89,
CC(C)n1ncc2cnc(-c3cc(C4CCN(C(=O)OC(C)(C)C)CC4)on3)cc21 [Compound 885],25.4,0.01,
CC(=O)N1CC(n2cc3ccc(-c4noc(N5CCN(C(=O)OC(C)(C)C)CC5)n4)cc3n2)C1 [Compound 898],> 45,0.07,
O=C(C1CCC1)N1CCC(c2nc(-c3ccc4cnn(C5COC5)c4c3)no2)CC1 [Compound 1044],> 45,0.593,
O=C(N1CCC(c2noc(-c3ccc4cnn(C5COC5)c4c3)n2)CC1)C12CC(C1)C2 [Compound 890],22.7,0.01,
COC(=O)N1CCN(c2nc(-c3ccc4cnn(C5CNC5)c4c3)no2)CC1 [Compound 913],> 45,13.8,
CC(C)(C(=O)N1CCC(c2noc(-c3ccnc(C4CCOC4)c3)n2)CC1)C(F)(F)F (stereo not shown) [Compound 1175],> 45,0.21,
CC1(C)CC1C(=O)N1CCC(c2noc(-c3ccc4cnn(C5COC5)c4c3)n2)CC1 (stereo not shown) [Compound 848],> 45,0.01,
CC(CF)n1ncc2ccc(-c3noc(C4CCN(C(=O)CC5(C)CC5)CC4)n3)cc21 (stereo not shown) [Compound 585],,,IC50 (SCD1; humanized yeast strain expressing SCD1): > 45 µM; IC50 (SCD5; humanized yeast strain expressing SCD5): 1.81 µM
COC(=O)N1CCC(F)(c2noc(-c3ccc4cnn(C5COC5)c4c3)n2)CC1 [Compound 892],> 45,0.01,
CC(C)(C)OC(=O)N1CCC(c2noc(-c3cc(N4CCOCC4)ccc3F)n2)CC1 [Compound 1156],> 45,0.493,
Cc1nn(C)c2cc(-c3noc(C4CCN(C(=O)CC5CNC5)CC4)n3)ccc12 [Compound 680],,,IC50 (SCD1; [1]): > 45 µM; IC50 (SCD5; [2]): > 45 µM
CC(C)(C)OC(=O)N1CCC(c2noc(-c3cccc(C4CCO4)c3)n2)CC1 (stereo not shown) [Compound 1152],> 45,0.01,
COC(=O)N1CCN(c2noc(-c3ccc4cnn(C5COC5)c4c3)n2)CC1 [Compound 713],,,IC50 (SCD1; [1]): 5.58 µM; IC50 (SCD5; [2]): 0.01 µM
Cc1nn(C)c2cc(-c3noc(C4CCN(C(=O)[C@H]5CC(=O)N(c6cccc(C#N)c6)C5)CC4(F)F)n3)ccc12 (stereo partly shown) [Compound 631],,,IC50 (SCD1; [1]): > 45 µM; IC50 (SCD5; [2]): > 45 µM
O=C(CC1CC1)N1CCN(c2nc(-c3ccc4cnn(C5COC5)c4c3)no2)CC1 [Compound 659],,,IC50 (SCD1; [1]): > 45 µM; IC50 (SCD5; [2]): 4.2 µM
CC(C)(C)OC(=O)N1CCC(c2cc(-c3cc4c(cn3)cnn4C3COC3)no2)CC1 [Compound 1144],1.78,0.01,
O=C(CC1CC1)N1CCC(c2noc(-c3ccc4cnn([C@@H]5CCOC5)c4c3)n2)CC1 [Compound 1104],> 45,0.01,
CC1(OC(=O)N2CCN(c3nc(-c4ccc5cnn(C6COC6)c5c4)no3)CC2)CC1 [Compound 620],,,IC50 (SCD1; [1]): > 45 µM; IC50 (SCD5; [2]): 0.013 µM
CC(C)C(=O)N1CCC(c2nc(-c3ccc4cnn(C5COC5)c4c3)no2)CC1 [Compound 1023],> 45,0.295,
COC1(C(=O)N2CCN(c3noc(-c4ccc5cnn(C(C)C)c5c4)n3)CC2)CC1 [Compound 889],13.3,1.9,

Structure (SMILES),"IC50 (SCD1; humanized yeast strain, 40 h) [µM]","IC50 (SCD5; humanized yeast strain, 40 h) [µM]",further results
CC(C)(C)CC(=O)N1CCC(c2nc(-c3ccc4cnn(C5COC5)c4c3)no2)CC1 [Compound 617],,,IC50 (SCD1; [1]): > 45 µM; IC50 (SCD5; [2]): 0.121 µM
CC(C)n1ncc2c1CN(c1noc(C3CCN(C(=O)OC(C)(C)C)CC3)n1)CC2 [Compound 893],> 45,0.01,
COC(=O)N1CCC(c2noc(-c3ccc4cnn([C@H]5CCOC5)c4c3)n2)CC1 [Compound 878],> 45,0.005,
O=C(c1sccc1Cl)N1CCC(c2nc(-c3ccc4cnn(C5COC5)c4c3)no2)CC1 [Compound 718],,,IC50 (SCD1; [1]): > 45 µM; IC50 (SCD5; [2]): 0.635 µM
CC(C)C(=O)N1CCC(c2noc(-c3ccnc(N4CCC(F)(F)C4)c3)n2)CC1 [Compound 1170],> 45,0.402,
CC(C)(C)OC(=O)N1CCC(c2nc(-c3ccc4cnn([C@H]5C[C@@H](O)C5)c4c3)no2)CC1 [Compound 822],> 45,0.111,
O=C(OC1CC1)N1CCC(c2noc(-c3ccnc(C4CCOC4)c3)n2)CC1 (stereo not shown) [Compound 1098],> 45,0.062,
CC(C)(C)OC(=O)N1CCC(c2nc(-c3ccc4cnn(CC5CCNC5=O)c4c3)no2)CC1 (stereo not shown) [Compound 645],,,IC50 (SCD1; [1]): 17.9 µM; IC50 (SCD5; [2]): 4.47 µM
O=C(C1CC1)N1CCN(c2noc(-c3ccnc(NC4COC4)c3)n2)CC1 [Compound 1117],> 45,> 45,
CCC(=O)N1CCC(c2noc(-c3ccc4cnn([C@@H]5CCOC5)c4c3)n2)CC1 [Compound 1050],> 45,0.02,
O=C(C1CCC1)N1CCC(c2noc(-c3ccc4cnn([C@@H]5CCOC5)c4c3)n2)CC1 [Compound 1093],> 45,0.00253,
Cc1nn(C)c2cc(-c3noc(C4CCN(C(=O)[C@@H]5CC(=O)N(c6cccc(C#N)c6)C5)CC4(F)F)n3)ccc12 (stereo partly shown) [Compound 648],,,IC50 (SCD1; [1]): > 45 µM; IC50 (SCD5; [2]): > 45 µM
COC(=O)N1CCC(c2nc(-c3ccnc(C(O)C(C)C)c3)no2)CC1 (stereo not shown) [Compound 856],> 45,> 45,
CC(C)(C)OC(=O)N1CCC(c2noc(-c3cccc(N4CCOCC4)c3)n2)CC1 [Compound 979],> 45,0.168,
CC(C)(C)OC(=O)N1CCC(c2nc(-c3ccc4cnn([C@H]5C[C@H](OC(=O)c6ccc([N+](=O)[O-])cc6)C5)c4c3)no2)CC1 [Compound 847],> 45,> 45,
CC(C)n1ncc2c1CN(c1noc(C3CCN(C(=O)OC(C)(C)C)CC3)n1)CC2 [Compound 827],> 45,> 45,
CC(C)(C)OC(=O)N1C[C@@H]2[C@H](C1)[C@H]2C(=O)NCc1ccc2[nH]ncc2c1 [Compound 794],> 45,> 45,
CC(C)(C)CC(=O)N1CCC(c2nc(-c3ccc4cnn(C5(C)COC5)c4c3)no2)CC1 [Compound 807],> 45,0.247,
Cc1nn(C)c2cc(-c3nc(C4CCN(C(=O)C5CC5)CC4)no3)ccc12 [Compound 920],11.7,0.1,
CC1(OC(=O)N2CCC(c3noc(-c4ccnc(Cl)c4)n3)CC2)CC1 [Compound 1130],> 45,9.9,
COC1(C(=O)N2CCC(c3noc(-c4ccc5cnn(C(C)C)c5c4)n3)CC2)CC1 [Compound 799],> 45,0.01,
CC(C)n1ncc2ccc(-c3nc(N4CCNCC4)no3)cc21 [Compound 798],> 45,> 45,
CCC(=O)N1CCC(c2noc(-c3ccc4cnn([C@H]5CCOC5)c4c3)n2)CC1 [Compound 1049],> 45,0.012,
